Measured values taken from the OligoGym collection.
HELM strings list units from the 5' end as sugar, base in round brackets, then linkage (d deoxyribose, r ribose, m 2'-O-methyl, p phosphodiester). Strings are as the collection lists them; they lack the last nucleoside at the 3' end of the tested compound. [moe] = 2'-O-(2-methoxyethyl) (MOE); [sp] = phosphorothioate linkage; [m5C] = 5-methylcytosine

These substances were tested against ATXN2 (assay: mouse, dose not given). Conditions: ASO.

Substance | 3 h FOB score [score 0-7]
RNA1{[moe](A)[sp].[moe]([m5C])p.[moe](T)p.[moe](T)p.[moe](T)[sp].d(T)[sp].d([m5C])[sp].d(T)[sp].d([m5C])[sp].d(A)[sp].d(T)[sp].d(G)[sp].d(T)[sp].[moe](G)p.[moe]([m5C])p.[moe](G)[sp].[moe](G)}$$$$ (last 3' nucleoside missing) | 3.25
RNA1{[moe](A)[sp].[moe]([m5C])p.[moe](T)p.[moe](T)p.[moe](T)p.[moe](T)p.d([m5C])[sp].d(T)[sp].d([m5C])[sp].d(A)[sp].d(T)[sp].d(G)[sp].d(T)[sp].d(G)[sp].d([m5C])[sp].d(G)[sp].[moe](G)p.[moe]([m5C])[sp].[moe](A)}$$$$ (last 3' nucleoside missing) | 6.5
RNA1{[moe](A)[sp].[moe]([m5C])p.[moe](T)p.[moe](T)p.[moe](T)p.d(T)[sp].d([m5C])[sp].d(T)[sp].d([m5C])[sp].d(A)[sp].d(T)[sp].d(G)[sp].d(T)[sp].d(G)[sp].d([m5C])[sp].[moe](G)p.[moe](G)p.[moe]([m5C])[sp].[moe](A)}$$$$ (last 3' nucleoside missing) | 5
RNA1{[moe](A)[sp].[moe]([m5C])p.[moe](T)p.[moe](T)p.[moe]([m5C])[sp].d(T)[sp].d([m5C])[sp].d(T)[sp].d(A)[sp].d(T)[sp].d(T)[sp].d(T)[sp].d([m5C])[sp].[moe](T)p.[moe](T)p.[moe](T)[sp].[moe](G)}$$$$ (last 3' nucleoside missing) | 2
RNA1{[moe](A)[sp].[moe]([m5C])p.[moe](T)p.[moe](T)p.[moe]([m5C])p.[moe](T)p.d([m5C])[sp].d(T)[sp].d(A)[sp].d(T)[sp].d(T)[sp].d(T)[sp].d([m5C])[sp].d(T)[sp].d(T)[sp].d(T)[sp].[moe](G)p.[moe](T)[sp].[moe]([m5C])}$$$$ (last 3' nucleoside missing) | 1.25
RNA1{[moe](A)[sp].[moe]([m5C])p.[moe](T)p.[moe](T)p.[moe]([m5C])p.d(A)[sp].d([m5C])[sp].d(A)[sp].d(T)[sp].d(T)[sp].d(T)[sp].d(G)[sp].d(G)[sp].d(A)[sp].d(G)[sp].[moe]([m5C])p.[moe]([m5C])p.[moe]([m5C])[sp].[moe](T)}$$$$ (last 3' nucleoside missing) | 5.75
RNA1{[moe](A)[sp].[moe]([m5C])p.[moe](T)p.[moe](T)p.[moe]([m5C])p.d(T)[sp].d([m5C])[sp].d(T)[sp].d(A)[sp].d(T)[sp].d(T)[sp].d(T)[sp].d([m5C])[sp].d(T)[sp].d(T)[sp].[moe](T)p.[moe](G)p.[moe](T)[sp].[moe]([m5C])}$$$$ (last 3' nucleoside missing) | 3
RNA1{[moe](A)[sp].[moe]([m5C])p.[moe](T)p.[moe](T)p.d(T)[sp].d(T)[sp].d([m5C])[sp].d(T)[sp].d([m5C])[sp].d(A)[sp].d(T)[sp].d(G)[sp].d(T)[sp].d(G)[sp].[moe]([m5C])p.[moe](G)p.[moe](G)p.[moe]([m5C])[sp].[moe](A)}$$$$ (last 3' nucleoside missing) | 2.5
RNA1{[moe](A)[sp].[moe]([m5C])p.[moe](T)p.[moe](T)p.d([m5C])[sp].d(T)[sp].d([m5C])[sp].d(T)[sp].d(A)[sp].d(T)[sp].d(T)[sp].d(T)[sp].d([m5C])[sp].d(T)[sp].[moe](T)p.[moe](T)p.[moe](G)p.[moe](T)[sp].[moe]([m5C])}$$$$ (last 3' nucleoside missing) | 0
RNA1{[moe](A)[sp].[moe]([m5C])p.[moe](T)p.[moe]([m5C])p.[moe](T)p.d([m5C])[sp].d([m5C])[sp].d(A)[sp].d(T)[sp].d(T)[sp].d(A)[sp].d(T)[sp].d(T)[sp].d(T)[sp].d([m5C])[sp].[moe](T)p.[moe](T)p.[moe]([m5C])[sp].[moe](A)}$$$$ (last 3' nucleoside missing) | 1
RNA1{[moe](G)[sp].[moe](A)p.[moe](A)p.[moe](G)p.[moe](T)p.d([m5C])[sp].d(T)[sp].d(T)[sp].d(G)[sp].d(T)[sp].d(T)[sp].d([m5C])[sp].d(A)[sp].d(G)[sp].d(T)[sp].[moe](G)p.[moe](T)p.[moe]([m5C])[sp].[moe]([m5C])}$$$$ (last 3' nucleoside missing) | 3.75
RNA1{[moe](G)[sp].[moe](A)p.[moe](A)p.[moe](G)p.[moe]([m5C])p.d(A)[sp].d(G)[sp].d(A)[sp].d(T)[sp].d(T)[sp].d(T)[sp].d(T)[sp].d(T)[sp].d(T)[sp].d(T)[sp].[moe](T)p.[moe](T)p.[moe](T)[sp].[moe](T)}$$$$ (last 3' nucleoside missing) | 3
RNA1{[moe](G)[sp].[moe](A)p.[moe](A)p.[moe](T)p.[moe]([m5C])p.d(T)[sp].d(T)[sp].d(A)[sp].d(T)[sp].d(T)[sp].d(A)[sp].d(A)[sp].d(G)[sp].d([m5C])[sp].d(A)[sp].[moe](A)p.[moe](G)p.[moe](T)[sp].[moe]([m5C])}$$$$ (last 3' nucleoside missing) | 2.5
RNA1{[moe](G)[sp].[moe](A)p.[moe](A)p.[moe]([m5C])p.[moe](A)p.d([m5C])[sp].d([m5C])[sp].d(A)[sp].d(T)[sp].d(G)[sp].d(A)[sp].d([m5C])[sp].d(T)[sp].d(G)[sp].d(A)[sp].[moe](T)p.[moe]([m5C])p.[moe]([m5C])[sp].[moe]([m5C])}$$$$ (last 3' nucleoside missing) | 4
RNA1{[moe](G)[sp].[moe](A)p.[moe](A)p.[moe]([m5C])p.[moe](T)p.d(G)[sp].d(G)[sp].d(A)[sp].d(T)[sp].d(T)[sp].d([m5C])[sp].d(T)[sp].d(G)[sp].d(T)[sp].d(A)[sp].[moe]([m5C])p.[moe](T)p.[moe](T)[sp].[moe](T)}$$$$ (last 3' nucleoside missing) | 4
RNA1{[moe](G)[sp].[moe](A)p.[moe](A)p.[moe]([m5C])p.[moe]([m5C])p.d(A)[sp].d(G)[sp].d(A)[sp].d(A)[sp].d(T)[sp].d(T)[sp].d([m5C])[sp].d(G)[sp].d(G)[sp].d(G)[sp].[moe](T)p.[moe](T)p.[moe](G)[sp].[moe](A)}$$$$ (last 3' nucleoside missing) | 3.75
RNA1{[moe](G)[sp].[moe](A)p.[moe](G)p.[moe](T)p.[moe](T)p.d(T)[sp].d(T)[sp].d(T)[sp].d(G)[sp].d([m5C])[sp].d([m5C])[sp].d(T)[sp].d(T)[sp].d([m5C])[sp].d([m5C])[sp].[moe](A)p.[moe](T)p.[moe](T)[sp].[moe](T)}$$$$ (last 3' nucleoside missing) | 1
RNA1{[moe](G)[sp].[moe](A)p.[moe](G)p.[moe](T)p.[moe](T)p.d([m5C])[sp].d(A)[sp].d([m5C])[sp].d([m5C])[sp].d(T)[sp].d(G)[sp].d([m5C])[sp].d(A)[sp].d(T)[sp].d([m5C])[sp].[moe]([m5C])p.[moe]([m5C])p.[moe](A)[sp].[moe](G)}$$$$ (last 3' nucleoside missing) | 6
RNA1{[moe](G)[sp].[moe](A)p.[moe](T)p.[moe](A)p.[moe](T)p.d(G)[sp].d(T)[sp].d(T)[sp].d(A)[sp].d([m5C])[sp].d(A)[sp].d(A)[sp].d(A)[sp].d(T)[sp].d(T)[sp].[moe]([m5C])p.[moe](T)p.[moe]([m5C])[sp].[moe](T)}$$$$ (last 3' nucleoside missing) | 0
